Target: T1, CXCR4 receptors (Homo sapiens, UniProt P61073)
T1 construct: expressing endogenous CXCR4 receptors; endogenous in cells; host or cells: CCRF-CEM (human T lymphoblast cells)
Assay: CXCR4-CEM calcium flux assay, antagonist mode (inhibition of SDF-1α-induced calcium flux)
Format: cell-based
Settings: inhibition of calcium flux induced by 4 nM SDF-1α in CCRF-CEM cells
Method: Exemplary compounds of the invention were tested for their ability to induce or inhibit calcium flux in CCRF-CEM cells. […] CXCR4-CEM Calcium Flux Assays. […] The cells were then equilibrated to room temperature for 30 minutes before assay. […] The serially diluted compounds were diluted to working concentrations with the same assay buffer to 0.5% DMSO. […] Activity of the compounds to induce calcium flux was monitored by FDSS in the “agonist mode” for 90 sec. For “antagonist mode” assessment, the cells are subsequently incubated for 25 min at room temperature. SDF-1α (R&D System Cat#350-NS/CF) was then added at a final concentration of 4 nM to stimulate the cells. Inhibition of SDF-1α-induced calcium flux was monitored by FDSS6000 for 90 sec. […] After correcting for background, EC50 values were determined. […] Inhibition data for the test compound over a range of concentrations was plotted as percentage inhibition of the test compound as compared to an internal control compound.

T1 sequence (P61073 whole entry): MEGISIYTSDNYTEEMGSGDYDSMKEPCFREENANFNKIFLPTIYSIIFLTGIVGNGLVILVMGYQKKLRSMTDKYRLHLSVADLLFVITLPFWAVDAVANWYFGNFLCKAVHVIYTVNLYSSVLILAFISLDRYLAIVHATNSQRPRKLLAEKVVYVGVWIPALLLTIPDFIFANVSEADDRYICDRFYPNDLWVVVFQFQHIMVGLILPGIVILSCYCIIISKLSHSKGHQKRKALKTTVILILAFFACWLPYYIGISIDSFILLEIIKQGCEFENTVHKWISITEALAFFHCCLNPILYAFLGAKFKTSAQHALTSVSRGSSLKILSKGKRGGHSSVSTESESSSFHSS

| IC50 | SMILES |
| --- | --- |
| 0.25 µM | CN(Cc1cn2c(N3CCNC[C@H]3CO)nccc2n1)[C@H]1CCCc2cccnc21 [Example 77, ((S)-1-(2-((methyl((S)-5,6,7,8-tetrahydroquinolin-8-yl)amino)methyl)imidazo[1,2-c]pyrimidin-5-yl)piperazin-2-yl)methanol] |
| 0.023 µM | CN(Cc1cn2c(N3CC4CNCC4C3)nccc2n1)[C@H]1CCCc2cccnc21 (stereo partly drawn) [Example 80, (8S)-N-((5-(hexahydropyrrolo[3,4-c]pyrrol-2(1H)-yl)imidazo[1,2-c]pyrimidin-2-yl)methyl)-N-methyl-5,6,7,8-tetrahydroquinolin-8-amine] |
| 0.032 µM | CN1CC2CN(c3nccc4nc(CN(C)[C@H]5CCCc6cccnc65)cn34)CC2C1 (stereo partly drawn) [Example 81, (8S)-N-methyl-N-((5-(5-methylhexahydropyrrolo[3,4-c]pyrrol-2(1H)-yl)imidazo[1,2-c]pyrimidin-2-yl)methyl)-5,6,7,8-tetrahydroquinolin-8-amine] |
| 3.78 µM | CN(Cc1cn2c(N3CCn4cnnc4C3)nccc2n1)[C@H]1CCCc2cccnc21 [Example 82, (S)-N-((5-(5,6-dihydro-[1,2,4]triazolo[4,3-a]pyrazin-7(8H)-yl)imidazo[1,2-c]pyrimidin-2-yl)methyl)-N-methyl-5,6,7,8-tetrahydroquinolin-8-amine] |
| 0.15 µM | CN(Cc1cn2c(N3CCn4ccnc4C3)nccc2n1)[C@H]1CCCc2cccnc21 [Example 83, (S)-N-((5-(5,6-dihydroimidazo[1,2-a]pyrazin-7(8H)-yl)imidazo[1,2-c]pyrimidin-2-yl)methyl)-N-methyl-5,6,7,8-tetrahydroquinolin-8-amine] |
| > 16 µM | CN(Cc1cn2c(N3CCN(CC(F)(F)F)CC3)nccc2n1)[C@H]1CCCc2cccnc21 [Example 84, (S)-N-methyl-N-((5-(4-(2,2,2-trifluoroethyl)piperazin-1-yl)imidazo[1,2-c]pyrimidin-2-yl)methyl)-5,6,7,8-tetrahydroquinolin-8-amine] |
| 0.0017 µM | CN(Cc1cn2c(N3CCN[C@@H](CO)C3)nccc2n1)[C@H]1CCCc2cccnc21 [Example 85, ((R)-4-(2-((methyl((S)-5,6,7,8-tetrahydroquinolin-8-yl)amino)methyl)imidazo[1,2-c]pyrimidin-5-yl)piperazin-2-yl)methanol] |
| 0.0017 µM | CN(Cc1cn2c(N3CCN[C@H](CO)C3)nccc2n1)[C@H]1CCCc2cccnc21 [Example 86, ((S)-4-(2-((methyl((S)-5,6,7,8-tetrahydroquinolin-8-yl)amino)methyl)imidazo[1,2-c]pyrimidin-5-yl)piperazin-2-yl)methanol] |
| 0.2 µM | CN(Cc1cn2c(N3CCN4C[C@@H](F)C[C@H]4C3)nccc2n1)[C@H]1CCCc2cccnc21 [Example 87, (S)-N-((5-((7S,8aS)-7-fluorohexahydropyrrolo[1,2-a]pyrazin-2(1H)-yl)imidazo[1,2-c]pyrimidin-2-yl)methyl)-N-methyl-5,6,7,8-tetrahydroquinolin-8-amine] |
| 0.22 µM | CN(Cc1cn2c(N3CC4CNC4C3)nccc2n1)[C@H]1CCCc2cccnc21 (stereo partly drawn) [Example 88, (8S)-N-((5-(3,6-diazabicyclo[3.2.0]heptan-3-yl)imidazo[1,2-c]pyrimidin-2-yl)methyl)-N-methyl-5,6,7,8-tetrahydroquinolin-8-amine] |
| 0.28 µM | CN(Cc1cn2c(N3CC4CNC4C3)nccc2n1)[C@H]1CCCc2cccnc21 (stereo partly drawn) [Example 89, (8S)-N-((5-(3,6-diazabicyclo[3.2.0]heptan-3-yl)imidazo[1,2-c]pyrimidin-2-yl)methyl)-N-methyl-5,6,7,8-tetrahydroquinolin-8-amine] |
| 0.0025 µM | CN(Cc1cn2c(N3CCN4CCCCC4C3)nccc2n1)[C@H]1CCCc2cccnc21 (stereo partly drawn) [Example 90, (8S)-N-methyl-N-((5-(octahydro-2H-pyrido[1,2-a]pyrazin-2-yl)imidazo[1,2-c]pyrimidin-2-yl)methyl)-5,6,7,8-tetrahydroquinolin-8-amine] |

The next lines start with the compound.

| SMILES | IC50 |
| --- | --- |
| CN(Cc1cn2c(N3CCN(Cc4ccccc4O)CC3)nccc2n1)[C@H]1CCCc2cccnc21 [Example 59, 2-({4-[2-({methyl[(S)-5,6,7,8-tetrahydroquinolin-8-yl]amino}methyl)imidazo[1,2-c]pyrimidin-5-yl]piperazin-1-yl}methyl)phenol] | 0.025 µM |
| CN(C)c1ccc(CN2CCN(c3nccc4nc(CN(C)[C@H]5CCCc6cccnc65)cn34)CC2)cc1 [Example 60, (8S)-N-{[5-(4-{[4-(dimethylamino)phenyl]methyl}piperazin-1-yl)imidazo[1,2-c]pyrimidin-2-yl]methyl}-N-methyl-5,6,7,8-tetrahydroquinolin-8-amine] | 0.0076 µM |
| CN(Cc1cn2c(N3CCN(CCc4ccc(O)cc4)CC3)nccc2n1)[C@H]1CCCc2cccnc21 [Example 61, 4-(2-{4-[2-({methyl[(S)-5,6,7,8-tetrahydroquinolin-8-yl]amino}methyl)imidazo[1,2-c]pyrimidin-5-yl]piperazin-1-yl}ethyl)phenol] | 0.033 µM |
| CN(Cc1cn2c(N3CCN(S(=O)(=O)c4cccs4)CC3)nccc2n1)[C@H]1CCCc2cccnc21 [Example 62, (S)-N-methyl-N-({5-[4-(thiophene-2-sulfonyl)piperazin-1-yl]imidazo[1,2-c]pyrimidin-2-yl}methyl)-5,6,7,8-tetrahydroquinolin-8-amine] | 19.6 µM |
| CN(Cc1cn2c(N3CCN(S(=O)(=O)c4ccccc4)CC3)nccc2n1)[C@H]1CCCc2cccnc21 [Example 63, (S)-N-({5-[4-(benzenesulfonyl)piperazin-1-yl]imidazo[1,2-c]pyrimidin-2-yl}methyl)-N-methyl-5,6,7,8-tetrahydroquinolin-8-amine] | 16.7 µM |
| CN(Cc1cn2c(N3CCN(Cc4ccc(C(F)(F)F)cc4)CC3)nccc2n1)[C@H]1CCCc2cccnc21 [Example 64, (S)-N-methyl-N-{[5-(4-{[4-(trifluoromethyl)phenyl]methyl}piperazin-1-yl)imidazo[1,2-c]pyrimidin-2-yl]methyl}-5,6,7,8-tetrahydroquinolin-8-amine] | 0.011 µM |
| CC(CCN1CCN(c2nccc3nc(CN(C)[C@H]4CCCc5cccnc54)cn23)CC1)c1ccccc1 (stereo partly drawn) [Example 65, (S)-N-methyl-N-({5-[4-(3-phenylbutyl)piperazin-1-yl]imidazo[1,2-c]pyrimidin-2-yl}methyl)-5,6,7,8-tetrahydroquinolin-8-amine] | 0.016 µM |
| CN(Cc1cn2c(N3CCN(Cc4cccc(C#N)c4)CC3)nccc2n1)[C@H]1CCCc2cccnc21 [Example 66, 3-({4-[2-({methyl[(S)-5,6,7,8-tetrahydroquinolin-8-yl]amino}methyl)imidazo[1,2-c]pyrimidin-5-yl]piperazin-1-yl}methyl)benzonitrile] | 0.0094 µM |
| CN(Cc1cn2c(N3CCN(Cc4nccs4)CC3)nccc2n1)[C@H]1CCCc2cccnc21 [Example 67, (S)-N-methyl-N-({5-[4-(1,3-thiazol-2-ylmethyl)piperazin-1-yl]imidazo[1,2-c]pyrimidin-2-yl}methyl)-5,6,7,8-tetrahydroquinolin-8-amine] | 0.042 µM |
| CN(Cc1cn2c(N3CCN(C(=O)Nc4cccc(Cl)c4)CC3)nccc2n1)[C@H]1CCCc2cccnc21 [Example 68, N-(3-chlorophenyl)-4-[2-({methyl[(S)-5,6,7,8-tetrahydroquinolin-8-yl]amino}methyl)imidazo[1,2-c]pyrimidin-5-yl]piperazine-1-carboxamide] | 0.05 µM |
| CN(Cc1cn2c(N3CCN(Cc4cccc(O)c4)CC3)nccc2n1)[C@H]1CCCc2cccnc21 [Example 69, 3-({4-[2-({methyl[(S)-5,6,7,8-tetrahydroquinolin-8-yl]amino}methyl)imidazo[1,2-c]pyrimidin-5-yl]piperazin-1-yl}methyl)phenol] | 0.0038 µM |
| CN(Cc1cn2c(N3CCNCC3)nccc2n1)[C@H]1CCOc2cccnc21 [Example 70, (S)—N-Methyl-N-((5-(piperazin-1-yl)imidazo[1,2-c]pyrimidin-2-yl)methyl)-3,4-dihydro-2H-pyrano[3,2-b]pyridin-4-amine] | 0.0042 µM |
| CN(Cc1nc2ccnc(N3CCNCC3)n2c1CO)[C@H]1CCOc2cccnc21 [Example 71, (S)-(2-(((3,4-Dihydro-2H-pyrano[3,2-b]pyridin-4-yl)(methyl)amino)methyl)-5-(piperazin-1-yl)imidazo[1,2-c]pyrimidin-3-yl)methanol] | 0.0027 µM |
| CN(Cc1cn2c(N3CCNCC3)nc(Cl)cc2n1)[C@H]1CCCc2cccnc21 [Example 72, (S)—N-((7-Chloro-5-(piperazin-1-yl)imidazo[1,2-c]pyrimidin-2-yl)methyl)-N-methyl-5,6,7,8-tetrahydroquinolin-8-amine] | 0.33 µM |
| C[C@@H]1CN(c2nccc3nc(CN(C)[C@H]4CCCc5cccnc54)cn23)C[C@H](C)N1 [Example 73, (S)—N-((5-((3S,5R)-3,5-Dimethylpiperazin-1-yl)imidazo[1,2-c]pyrimidin-2-yl)methyl)-N-methyl-5,6,7,8-tetrahydroquinolin-8-amine] | 0.12 µM |
| CN(Cc1cn2c(N3CCC(N)C3)nccc2n1)[C@H]1CCCc2cccnc21 (stereo partly drawn) [Example 74, (8S)-N-((5-(3-aminopyrrolidin-1-yl)imidazo[1,2-c]pyrimidin-2-yl)methyl)-N-methyl-5,6,7,8-tetrahydroquinolin-8-amine] | 0.079 µM |
| CN(Cc1cn2c(N3CCN4CCC[C@H]4C3)nccc2n1)[C@H]1CCCc2cccnc21 [Example 76, (S)-N-((5-((S)-hexahydropyrrolo[1,2-a]pyrazin-2(1H)-yl)imidazo[1,2-c]pyrimidin-2-yl)methyl)-N-methyl-5,6,7,8-tetrahydroquinolin-8-amine] | 0.0064 µM |

From patent US10450318B2, “CXCR4 receptor antagonists” (BRISTOL-MYERS SQUIBB COMPANY, priority 2015, dated 2019)
